For series [1], the system named is Mycobacterium tuberculosis. Description: Antitubercular activity against Mycobacterium tuberculosis H37Rv assessed as growth inhibition. In kind it is functional.
Series [2] deals with Mycobacterium tuberculosis. Description: Antitubercular activity against Mycobacterium tuberculosis infected in mouse assessed as reduction in colony formation at 20 mg/kg for 20 days. In kind it is functional.
The subject of series [3] is Mycobacterium tuberculosis. The series can be described thus: Antitubercular activity against Mycobacterium tuberculosis assessed as growth inhibition. In kind it is functional.
Series [4] in a line: Oral bioavailability in dog. The class given is ADME, organism-based, Canis lupus familiaris. The conditions noted are these: in vivo.
The subject of series [5] is Mycobacterium tuberculosis. The series can be described thus: Antitubercular activity against drug-susceptible Mycobacterium tuberculosis clinical isolates assessed as growth inhibition. The class given is functional.
Series [6] relates to Mycobacterium tuberculosis. The series can be described thus: Antitubercular activity against XDR clinical isolates Mycobacterium tuberculosis […] assessed as growth inhibition in presence of […] clavulanate. In kind it is functional.
For series [7], the system named is Mycolicibacterium smegmatis. Description: Antimicrobial activity against Mycobacterium smegmatis assessed as intracellular bacterial killing. In kind it is functional.
In series [8] the test system is Mycobacterium tuberculosis. The series can be described thus: Antitubercular activity against Mycobacterium tuberculosis assessed as growth inhibition by alamar blue assay. In kind it is functional. In general terms: The colour change of resazurin is a common sign of viable cells or microbes.
In series [9] the test system is Mycolicibacterium smegmatis. Description: Antimicrobial activity against Mycobacterium smegmatis. In kind it is functional.
The test system of series [10] is Mycobacterium tuberculosis. Description: Antitubercular activity against Mycobacterium tuberculosis infected in mouse J774A.1 assessed as reduction in bacterial count. The class given is functional.
Series [11] concerns Mycobacterium tuberculosis. The series can be described thus: Antitubercular activity against Mycobacterium tuberculosis H37Rv assessed as growth inhibition in presence of […] clavulanate. In kind it is functional.
Series [12] concerns Mycobacterium avium. Description: Antimycobacterial activity against Mycobacterium avium assessed as growth inhibition. The class given is functional.

Results on 21 compounds are retold here after ChEMBL document CHEMBL3352501, “SAR analysis of new anti-TB drugs currently in pre-clinical and clinical development” (Eur J Med Chem, 2014).

Converted amounts (≈) assume the structure as drawn.

One may read the MIC as the smallest concentration in the dilution series that meets the test's criterion for growth inhibition. With `O=c1nc(N2CCN(CC3CCCCC3)CC2)sc2c([N+](=O)[O-])cc(C(F)(F)F)cc12` [MACOZINONE], the MIC in series [1] was found to be 0.00019 µg/mL.

As to `O=c1nc(N2CCN(CCC3CCCCC3)CC2)sc2c([N+](=O)[O-])cc(C(F)(F)F)cc12`, the MIC in series [1] was 0.00019 µg/mL. Consider `O=c1nc(N2CCN(CCCCc3ccccc3)CC2)sc2c([N+](=O)[O-])cc(C(F)(F)F)cc12`, for which the MIC in [1] was determined as 0.00019 µg/mL. Regarding `CC(C)/N=c1\cc2n(-c3ccc(Cl)cc3)c3ccccc3nc-2cc1Nc1ccc(Cl)cc1` [CLOFAZIMINE], the MIC in series [1] worked out at 1.21 µg/mL; in [3] it was 0.12 µg/mL (≈ 0.253 µM). The log10cfu in series [2] was 6.33. By bioavailability is commonly meant dose-corrected exposure relative to a reference, in per cent. For the compound `CC(C)=CCC/C(C)=C/CNCCNC1C2CC3CC(C2)CC1C3` (stereo not drawn) [SQ109], in series [4], the bioavailability worked out at 2.4%. The MIC in [5] amounted to 0.2 µg/mL (≈ 0.605 µM). In the case of `O=c1nc(N2CCN(CCCCOc3ccccc3)CC2)sc2c([N+](=O)[O-])cc(C(F)(F)F)cc12`, the MIC in series [1] is 0.00019 µg/mL. By MIC90 is commonly meant the lowest concentration that inhibits either 90% of growth or 90% of the strains tested, depending on the study. Take `CCc1nc2ccc(Cl)cn2c1C(=O)NCc1ccc(N2CCC(c3ccc(OC(F)(F)F)cc3)CC2)cc1` [TELACEBEC]: the MIC90 in [6] was less than 0.43 nM. In series [1], the minimum inhibitory concentration (MIC) is 2.7 nM. On to `CO[C@H]1/C=C/O[C@@]2(C)Oc3c(C)c(O)c4c(O)c(c(/C=N/N5CCN(C)CC5)c(O)c4c3C2=O)NC(=O)/C(C)=C\C=C\[C@H](C)[C@H](O)[C@@H](C)[C@@H](O)[C@@H](C)[C@H](OC(C)=O)[C@@H]1C` [RIFAMPIN], for which, in series [7], the MIC was less than 1 µg/mL. Take `COc1c(N2CC3(CC3)[C@](C)(N)C2)c(F)cc2c(=O)c(C(=O)O)cn([C@@H]3C[C@@H]3F)c12`: in series [3], the MIC90 amounted to 0.06 µg/mL (≈ 0.143 µM). On to `C[C@@]1(COc2ccc(N3CCC(Oc4ccc(OC(F)(F)F)cc4)CC3)cc2)Cn2c([N+](=O)[O-])cnc2O1`, for which, in series [1], the MIC came out at 0.012 µg/mL. `O=[N+]([O-])c1cn2c(n1)OC[C@@H](OCc1ccc(OC(F)(F)F)cc1)C2` [PRETOMANID]: the MIC in series [1] was found to be 0.13 µg/mL. On to `COc1nc2ccc(Br)cc2cc1[C@@H](c1ccccc1)[C@@](O)(CCN(C)C)c1cccc2ccccc12` [BEDAQUILINE], for which, in series [5], the minimum inhibitory concentration (MIC) worked out at 0.002 µg/mL (≈ 0.0036 µM). Further, in series [8], the MBC90 was determined as 2 µg/mL (≈ 3.6 µM) and the WCC90 came out at 1 µg/mL.

For the compound `NNC(=O)c1ccncc1` [ISONIAZID], the MIC in series [7] was 0.1 µg/mL (≈ 0.729 µM). In the case of `C[C@H]1COC2(CCN(c3nc(=O)c4cc(C(F)(F)F)cc([N+](=O)[O-])c4s3)CC2)O1` [BTZ-043], the figures for the MIC in series [9], in series [7] and in series [1] were 0.004 µg/mL (≈ 0.00927 µM), less than 0.01 µg/mL and 0.001 µg/mL, respectively. Take `CC(=O)NC[C@H]1CN(c2ccc(N3CCOCC3)c(F)c2)C(=O)O1` [LINEZOLID]: in series [3], the MIC is less than 1 µg/mL.

As for `CC1(C)S[C@@H]2[C@H](NC(=O)[C@H](N)c3ccc(O)cc3)C(=O)N2[C@H]1C(=O)O` [AMOXICILLIN], the minimal inhibitory concentration (MIC) in series [6] turned out to be 0.23 µg/mL; in series [11], 0.32 µg/mL. The “fold change (FC)” value in series [10] amounted to 1.5.

With `CC(=O)NC[C@H]1CN(c2ccc(N3CCSCC3)c(F)c2)C(=O)O1` [SUTEZOLID], the MIC in series [3] is 0.125 µg/mL (≈ 0.354 µM).

Turning to `O=C([C@@H](O)CO)N1CC=C(c2c(F)cc(N3C[C@H](COc4ccon4)OC3=O)cc2F)CC1` [POSIZOLID], the MIC in series [1] was determined as 1 µg/mL. For the compound `CO[C@H]1/C=C/O[C@@]2(C)Oc3c(C)c(O)c4c(c3C2=O)C2=NC3(CCN(CC(C)C)CC3)NC2=C(NC(=O)/C(C)=C\C=C\[C@H](C)[C@H](O)[C@@H](C)[C@@H](O)[C@@H](C)[C@H](OC(C)=O)[C@@H]1C)C4=O` [RIFABUTIN], the figures for the MIC in series [1] and in series [12] were 0.015 µg/mL and 0.06 µg/mL (≈ 0.0708 µM), respectively. Turning to `CCCCCCCN1CCN(c2nc(=O)c3cc(C(F)(F)F)cc([N+](=O)[O-])c3s2)CC1`, the MIC in [1] was 0.00019 µg/mL. Regarding `COc1ncccc1Nc1cc2nc3ccccc3n(-c3ccc(OC(F)(F)F)cc3)c-2c/c1=N\C1CCC(OC)CC1` (stereo not drawn), in [1], the MIC was greater than 25 µg/mL. Besides, the log10cfu in series [2] is recorded as 4.66.
